Measured values reported in BindingDB's records for doi:10.7270/Q2319T8T (The Scripps Research Institute Molecular Screening Center, 2007).
Structures can show the parent of a compound that is named as a salt.

Target: Steroidogenic factor 1 (Homo sapiens, UniProt Q13285)
Assay: blockers of SF-1 LBD reporter transcription – cell-based, CHO-K1, Gal4-SF-1 LBD, luciferase luminescence, dose response (AID 600)
[1] = inactive by the depositor's call

Steroidogenic factor 1, sequence (Q13285 whole entry, the tested form may be a part): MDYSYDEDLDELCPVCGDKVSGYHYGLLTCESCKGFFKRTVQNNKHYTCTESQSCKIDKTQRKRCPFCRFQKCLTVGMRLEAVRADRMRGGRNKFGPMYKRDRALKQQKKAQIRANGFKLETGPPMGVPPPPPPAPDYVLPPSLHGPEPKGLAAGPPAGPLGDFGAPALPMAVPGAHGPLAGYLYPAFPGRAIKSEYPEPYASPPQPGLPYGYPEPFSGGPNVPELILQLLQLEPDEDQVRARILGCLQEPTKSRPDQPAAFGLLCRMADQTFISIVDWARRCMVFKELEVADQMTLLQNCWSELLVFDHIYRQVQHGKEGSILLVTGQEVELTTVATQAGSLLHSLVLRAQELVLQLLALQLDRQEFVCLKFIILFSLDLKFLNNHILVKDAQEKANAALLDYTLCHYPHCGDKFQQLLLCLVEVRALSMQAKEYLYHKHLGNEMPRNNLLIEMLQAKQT

Compound | IC50 | IC50 [1]
CN(C)c1ccc2c(c1)OC(=N)C(C#N)C2c1cccc(F)c1 (centres undefined) [2-amino-7-(dimethylamino)-4-(3-fluorophenyl)-4H-1-benzopyran-3-carbonitrile] | 10.9 µM | –
O=S1(=O)C=C(Sc2nc3ccccc3s2)c2ccccc21 [2-[(1,1-dioxido-1-benzothien-3-yl)thio]-1,3-benzothiazole] | 0.713 µM | –
COc1cc(NS(=O)(=O)c2ccc(C)cc2)c2ncccc2c1 [SMR000071147] | > 3.67 µM | –
O=C(c1ccccc1)C(CCC(CN1CCOCC1)C(=O)c1ccccc1)CN1CCOCC1 (centres undefined) [2,5-bis(4-morpholinylmethyl)-1,6-diphenylhexane-1,6-dione;hydrochloride] | 10.6 µM | –
O=C(c1ccc2c3c(cccc13)C(=O)N(O)C2=O)N1CCCCC1 [2-hydroxy-6-(piperidine-1-carbonyl)benzo[de]isoquinoline-1,3-dione] | 1.92 µM | –
O=C(CC=Nc1ccc2c(c1)OCO2)c1ccccn1 [(Z)-3-(1,3-benzodioxol-5-ylamino)-1-(2-pyridinyl)-2-propen-1-one] | 13.6 µM | –
Cc1ccc(-c2csc3ncnc(Sc4nnc(CN5CCCCCC5=O)o4)c23)cc1 [1-[[5-[5-(4-methylphenyl)thieno[2,3-d]pyrimidin-4-yl]sulfanyl-1,3,4-oxadiazol-2-yl]methyl]azepan-2-one] | 5.76 µM | –
Cn1ncnc2c(=O)n(C)c(=O)nc1-2 | 0.75 µM | –
CN(CC1CCCO1)S(=O)(=O)c1ccc(C(=O)Nc2nc(-c3ccccn3)cs2)cc1 (centres undefined) [4-[methyl(2-oxolanylmethyl)sulfamoyl]-N-[4-(2-pyridinyl)-2-thiazolyl]benzamide] | > 3.67 µM | –
Cc1cnc(NC(=O)COc2ccccc2Cl)s1 [2-(2-chloranylphenoxy)-N-(5-methyl-1,3-thiazol-2-yl)ethanamide] | > 1.22 µM | –
CCn1nc(-c2cccs2)nc2c(=O)n(C)c(=O)nc1-2 [1-ethyl-6-methyl-3-thiophen-2-yl-pyrimido[5,4-e][1,2,4]triazine-5,7-dione] | 2.65 µM | –
CCOc1ccc(-c2cc(CCCC(=O)NCCc3ccc(OC)c(OC)c3OC)no2)cc1 [4-(5-p-phenetylisoxazol-3-yl)-N-[2-(2,3,4-trimethoxyphenyl)ethyl]butyramide] | 7.53 µM | –
Cc1csc(SCC(=O)c2cc(C)n(Cc3cccs3)c2C)n1 [1-[2,5-dimethyl-1-(2-thenyl)pyrrol-3-yl]-2-[(4-methylthiazol-2-yl)thio]ethanone] | > 3.67 µM | –
Cc1cccc(N2CCN(C(=O)CSCc3c(C)noc3C)CC2)c1C [2-[(3,5-dimethyl-1,2-oxazol-4-yl)methylsulfanyl]-1-[4-(2,3-dimethylphenyl)piperazin-1-yl]ethanone] | 0.876 µM | –
Cc1nc(N2CCN(c3ccccc3)CC2)nc(O)c1Cc1cccc2ccccc12 [MLS000084491] | > 3.67 µM | –
COc1ccc(C(=O)Nc2ccc(C)cn2)c(OC)c1 [2,4-dimethoxy-N-(5-methylpyridin-2-yl)benzamide] | 3.4 µM | –
COC(=O)/C(=C1/Oc2cc(C)oc(=O)c2S1)C(F)(F)F [methyl (2E)-3,3,3-tris(fluoranyl)-2-(6-methyl-4-oxidanylidene-[1,3]oxathiolo[4,5-c]pyran-2-ylidene)propanoate] | 4.69 µM | –
O=C(Nc1nc2ccccc2[nH]1)c1ccccc1F [N-1,3-dihydro-2H-benzimidazol-2-ylidene-2-fluorobenzamide] | 1.55 µM | –
C=CCOC(=O)c1[nH]c2c(c1C)C(=O)CC(c1cc(OC)c(OC)c(OC)c1)C2 (centres undefined) [SMR000093465] | – | 18.1 µM
COCc1cc(CN2CCCC2)c(O)c2ncccc12 [5-(methoxymethyl)-7-(1-pyrrolidinylmethyl)-8-quinolinol] | 4.13 µM | –
COc1ccc(C(NC(C)=O)c2ccc3cccnc3c2O)c(OC)c1 (centres undefined) [MLS000109349] | > 3.67 µM | –
COc1ccc(OC)c(NS(=O)(=O)c2ccc(N3CCCC3=O)cc2)c1 [MLS000079343] | – | 36 µM
CCNC(=O)CCc1nc(-c2ccc(C(C)(C)C)cc2)no1 [3-[3-(4-tert-butylphenyl)-1,2,4-oxadiazol-5-yl]-N-ethyl-propanamide] | 0.0401 µM | –
COc1cc(C2Nc3cccc4cccc(c34)N2)cc(OC)c1OC(C)=O [MLS000078084] | 7.72 µM | –
